The source of these data is ChEMBL document CHEMBL1135603, “Modeling of binding modes and inhibition mechanism of some natural ligands of farnesyl transferase using molecular docking” (J Med Chem, 2002).

The target of data set [1] is Protein farnesyltransferase (Rattus norvegicus, UniProt Q02293+Q04631). Kind of data set: Inhibition of Farnesyltransferase. The format is protein-complex assay.
Data set [2] is described as follows: Partition coefficient (logP). The format is physicochemical. The settings on record: octanol/water.

Compound `CC(C)CCCC(C)C1CCC2C3C(CC[C@]12C)[C@@](C)(CCC(=O)O)C(=O)C[C@@H]3C` (some centres not stated) had an IC50 in data set [1] of 0.9 µM.

In turn, `CC(C)CCCC(C)C1CCC2C3CCC(=O)[C@](C)(C[C@@H](CC(=O)O)C(=O)O)C3CC[C@]12C` (some centres not stated) returned an IC50 in data set [1] of 0.19 µM.

The compound `CC(=O)O[C@H]1CC[C@]2(C=O)[C@H](CC[C@@]3(C)[C@H]2C=C(C)[C@@]2(C)C(O)=C(C)C(=O)[C@]23C(=O)O)C1(C)C` [ANDRASTATIN A] showed an IC50 in data set [1] of 24.9 µM. This compound also gave a lipophilicity (logP) in data set [2] of 1.7.

For `CC(=O)O[C@H]1CC[C@]2(CO)[C@H](CC[C@@]3(C)[C@H]2C=C(C)[C@@]2(C)C(O)=C(C)C(=O)[C@]23C(=O)O)C1(C)C` [ANDRASTATIN B], the IC50 in data set [1] came to 47.1 µM. This compound gave a logP in data set [2] of 1.6.

On to `CC(=O)O[C@H]1CC[C@]2(C)[C@H](CC[C@@]3(C)[C@H]2C=C(C)[C@@]2(C)C(O)=C(C)C(=O)[C@]23C(=O)O)C1(C)C` [ANDRASTATIN C], for which inhibition in data set [1] was half-maximal at 13.3 µM (IC50). The compound also showed a logP in data set [2] of 2.7.

Turning to `C=C1C(=O)O[C@@H]2[C@H]3C[C@@]4(C)C=CC3(CC43C(=O)O[C@@H]4C5C(C)=CC(=O)C5=C(C)C[C@H](CC(=O)CC(C)C)C43)[C@](C)(O)CC[C@@H]12` (some centres not stated) [ARTEMINOLIDE], inhibition in data set [1] was half-maximal at 0.36 µM (IC50). Besides, the logP in data set [2] was 1.8.

In data set [1], `COC(=O)C1=CC(CO)=COc2oc3cccc(O)c3c(=O)c21` [FUSIDIENOL] displayed an IC50 of 0.3 µM. This compound had a logP in data set [2] of 1.8.

Turning to `CC(C)=CCC/C(C)=C/CC/C(C)=C/CC/C(=C\C(=O)O)C(=O)O` [SCHIZOSTATIN E], in data set [2], the lipophilicity (logP) was found to be 1.3.

In turn, `CC(C)=CCC/C(C)=C/CC/C(C)=C/CC/C(=C/C(=O)O)C(=O)O` [SCHIZOSTATIN Z] came in with an IC50 in data set [1] of 300 µM. The same compound showed a logP in data set [2] of 1.4.

The compound `C=C(CC[C@]12O[C@H](C(=O)O)[C@@](O)(C(=O)O)[C@](C(=O)O)(O1)[C@H](OC(=O)/C=C/[C@@H](C)C[C@@H](C)CC)[C@H]2O)[C@@H](OC(C)=O)[C@H](C)Cc1ccccc1` [ZARAGOZIC ACIDS A] displayed an IC50 in data set [1] of 0.012 µM. The logP in data set [2] was determined as 2.
